Five molecules from patent US8236488B2, “Method of screening for therapeutic compounds for vascular disorders and hypertension based on URAT1 activity modulation” (Human Cell Systems, Inc., priority 2003, dated 2012) can be followed below.

What all share (assay type): cell-based
For test [1], the system named is rat VSMCs. The test is described as follows: 14C-urate uptake into rat VSMCs in the presence of inhibitors or other organic anions. Conditions: 20 μM 14C-urate, 37° C., 5 minutes; for uric acid uptake into VSMCs in the presence of organic anion transporter inhibitor: 0.1, 0.5 or 1 mM probenecid or 0.5, 1 or 10 μM benzbromarone; for uric acid uptake into VSMCs in the presence of another organic anion: 100, 250 or 500 μM PAH or lactate. Here is the method:
Further, the present inventors examined a mechanism of urate uptake under physiologic conditions (polarized conditions). First, the present inventors examined whether ^14C-urate competed with cold urate for uptake. The ^14C-urate uptake level by rat VSMCs was measured at 37° C. for 5 minutes using an uptake solution containing 20 μM ^14C-urate and 0, 0.1, 1, 5, 10, or 50 mg/dL cold urate. Each of the measurement results is the average±standard deviation of three wells. […] In FIG. 2, a vertical axis represents the ratio (%) of ^14C-urate uptake level determined when the ^14C-urate uptake level in the absence of cold urate is defined as 100%. A horizontal axis represents the concentration of cold urate (mg/dL).
The ^14C-urate uptake level was measured at 37° C. for 5 minutes using an uptake solution containing 20 μM ^14C-urate and 0, 0.1, 0.5 or 1 mM probenecid or 0, 0.5, 1 or 10 μM benzbromarone. Each of the measurement results is the average±standard deviation of three wells. […] In FIGS. 3 and 4, a vertical axis represents the ratio (%) of ^14C-urate uptake level determined when the ^14C-urate uptake level in the absence of probenecid (FIG. 3) or benzbromarone (FIG. 4) is defined as 100%. A horizontal axis in FIG. 3 represents the concentration of probenecid (mM), and a horizontal axis in FIG. 4 represents the concentration of benzbromarone (μM). An asterisk (*) in the FIGS. 3 and 4 indicate that there is a significant difference (p<0.05)
Further, another test was carried out to examine whether ^14C-urate competed with an organic anion such as para-amino hippurate (PAH) or lactate for uptake. The ^14C-urate uptake level by rat VSMCs was measured at 37° C. for 5 minutes using an uptake solution containing 20 μM ^14C-urate and 0, 100, 250 or 500 μM PAH or 0, 100, 250 or 500 lactate. In addition, the ^14C-urate uptake level by rat VSMCs was also measured using an uptake solution containing 20 μM ^14C-urate and 250 μM uric acid (UA). Each of the measurement results is the average±standard deviation of three wells. […] In FIGS. 5 and 6, a vertical axis represents the ratio (%) of ^14C-urate uptake level determined when the ^14C-urate uptake level in the absence of PAH (FIG. 5) or lactate (FIG. 6) is defined as 100%. A horizontal axis in FIG. 5 represents the concentration of PAH (μM), and a horizontal axis in FIG. 6 represents the concentration of lactate (μM). An asterisk (*) in FIGS. 5 and 6 indicate that there is a significant difference (p<0.05).
(§1) In the following experiments, vascular smooth muscle cells (VSMCs) derived from rat aorta were used (see Zhang S, Yang Y, et al., Circulation., 2003; 107, 1539-44). These cells were cultured in Dulbecco' s Modified Eagle Medium (DMEM, GIBCO) containing 10% fetal bovine serum (FBS), 1% glutamine, and 1% penicillin/streptomycin solution (100 units/ml penicillin, 100 μg/mL streptomycin; GIBCO). The cultured VSMCs were transferred into wells of a 35-mm six-well culture plate (NUNC), and were then maintained at 37° C. in an atmosphere of 5% carbon dioxide and 95% air in a humidified tissue culture incubator. The culture medium was replaced every 2 days. The VSMCs used in the experiments were 5th to 12th generation cells.
The VSMCs (4×10^5 cells) were transferred into wells of a six-well culture plate together with 10% FBS-DMEM. After a lapse of one day, the VSMCs were placed in DMEM medium without serum and incubated over night to stop growth. In all the experiments, cells and all the solutions used were maintained at 37° C. […]

Test [2] concerns rat VSMCs. Description: VSMC proliferation test (3H-thymidine uptake). Conditions: 24 hour incubation; for effect of inhibitor alone on cell proliferation: absence of uric acid. Here is the method:
Next, the present inventors examined whether an inhibitor of organic anion transportation inhibited the response of VSMC proliferation. Proliferation of VSMCs after 24 hour incubation was determined by measuring the ^3H-thymidine uptake level. This test was carried out for cases where no uric acid (UA) was present, 3 mg/dL uric acid (UA) was present, 3 mg/dL uric acid and 0.1, 0.5 or 1 mM probenecid were present, and 3 mg/dL uric acid (UA) and 0.5, 1 or 10 μM benzbromarone were present. In addition, the test was also carried out for cases where probenecid was present alone and benzbromarone was present alone. Each of the measurement results is the average±standard deviation of three wells (CPM). FIGS. 7 and 8 show the result of the test carried out to examine the effect of probenecid (FIG. 7) or benzbromarone (FIG. 8) on inhibition of response of VSMC proliferation. In FIGS. 7 and 8, a vertical axis represents the ^3H-thymidine uptake (CPM) level, a horizontal axis represents the concentration of uric acid or the concentration of an inhibitor.
as §1
The VSMCs (4×10^5 cells) were transferred into wells of a six-well culture plate together with 10% FBS-DMEM, and were cultured for 24 hours. Then, the cells were starved for 48 hours in 0.5% FBS-DMEM, and the resting VSMCs were stimulated with 3 mg/dL uric acid containing 1 μCi ^3H-thymidine to detect DNA synthesis. Further, 2 μCi/mL ^3H-thymidine was added to each well 2 hours before harvesting the cells. The cells were washed with ice-cooled PBS three times, and were lysed in 1 mL of 1N NaOH. 0.5 mL of the cell lysate was added to 5 mL of scintillation fluid to measure the ^3H-thymidine uptake level by the cells. The ^3H-thymidine uptake level by the cells was expressed as CMP/well and counted in a liquid scintillation counter. Some experiments were carried out in the presence of different concentrations of probenecid or benzbromarone (organic anion transporter inhibitor).

Test [3] has as its system MCP-1. Description: ELISA of MCP-1 protein secreted into culture supernatant of rat VSMCs. Particulars: 24 hours. Here is the method: The present inventors have already reported that uric acid induces the production of MCP-1 (see Non-Patent Document 8). The production of MCP-1 in VSMC was examined. Rat VSMCs were cultured for 24 hours, and the amount of MCP-1 secreted into culture supernatant was measured by ELISA. A test was carried out for cases where 3 mg/dL uric acid (UA) was present, 3 mg/dL uric acid and 1 mM probenecid were present, and probenecid was present alone. In FIG. 10, a vertical axis represents the amount of MCP-1 (pg/1000 cells), and a horizontal axis represents cases where nothing was present (No UA), 3 mg/dL uric acid was present (UA), 3 mg/dL uric acid and 1 mM probenecid were present (UA+Prob), and probenecid was present alone (Prob), and two asterisks (**) indicate that there is a significant difference (p<0.05) when compared to a control. […] The VSMCs (5×10^4 cells/well) were placed in wells of a 24-well plate, and serum was deprived after reaching 70% confluence. Then, media with or without 3 mg/dL uric acid was added and the cells were cultured for 24 hours in the presence or absence of 1 mM probenecid. The amount of MCP-1 protein contained in supernatant was measured by ELISA (OptEIA MCP-1 set, BD Pharmingen), and corrected for cell number. Each experiment was repeated three times.

Test [4] relates to rat VSMCs. Description: Urate uptake into VSMCs under polarized and depolarized conditions. Particulars: 20 μM 14C-urate. The method, then: Urate uptake into vascular smooth muscle cells (VSMCs) was examined under polarized and depolarized conditions. The ^14C-urate uptake level by VSMCs was measured using an uptake solution containing 20 μM ^14C-urate under polarized conditions (HEPES-physiological saline solution) or depolarized conditions (100 mM KCl uptake solution) for 120 minutes. The ^14C-urate uptake level was measured every one minute. Each of the measurement results is the average±standard deviation of three wells. In FIG. 1, a vertical axis represents the ^14C-urate uptake (CPM) level, a horizontal axis represents time (min), the symbol “□” represents a case where urate uptake was examined under depolarized conditions, and the symbol “♦” represents a case where urate uptake was examined under polarized conditions. […] It can be known that urate is rapidly taken up by rat VSMCs, that under depolarized conditions, urate uptake reaches steady state within about 15 minutes, and that under polarized conditions, urate uptake reaches steady state within about 30 minutes.
Further, in still another experiment, urate uptake was examined under polarized or depolarized conditions to determine whether urate uptake was voltage sensitive. The conditions for the experiment were the same as described above except that a culture solution for polarized conditions and a culture solution for depolarized conditions were different. More specifically, after 12 hour starvation, the serum free medium was removed and replaced with 0.45 mL of HEPES-physiological saline solution (PSS) containing 140 mM NaCl, 4 mM KCl, 2 mMCaCl2, 1 mM MgCl2, 5 mM glucose, and 16 mM HEPES-tris (pH 7.4) for polarized conditions, or 100 mM-KCl uptake solution containing 44 mM NaCl, 100 mM KCl, 2 mM CaCl2, 1 mM MgCl2, 5 mM glucose, and 16 mM HEPES-tris (pH 7.4) for depolarized conditions.

A value given as a limit tells only on which side of the number the result lay.

With `CCc1oc2ccccc2c1C(=O)c1cc(Br)c(O)c(Br)c1` [benzbromarone], the “uric acid uptake into VSMCs in the presence of organic anion transporter inhibitor” value in test [1] is listed as “concentration-dependently reduced”. Moreover, in test [2], the “effect of inhibitor alone on cell proliferation” value is listed as “The same was observed”.
Turning to `CC(O)C(=O)O` (centres unmarked) [lactate], the “uric acid uptake into VSMCs in the presence of another organic anion” value in test [1] is “more weakly inhibited”.
`CCCN(CCC)S(=O)(=O)c1ccc(C(=O)O)cc1` [probenecid]: in test [1], the “uric acid uptake into VSMCs in the presence of organic anion transporter inhibitor” value was “concentration-dependently reduced”. Further, the “increase in uric acid-induced production of MCP-1” value in test [3] (3 mg/dL uric acid and 1 mM probenecid) was “inhibited”. Also, the “production of MCP-1 with inhibitor alone” value in test [3] (probenecid alone, no uric acid) is on record as “not inhibited”. Besides, the “uric acid-induced increase in the 3H-thymidine uptake level (VSMC proliferation)” value in test [2] (3 mg/dL uric acid plus inhibitor) is listed as “concentration-dependently inhibited”. In addition, the “effect of inhibitor alone on cell proliferation” value in test [2] is reported as “little effect on cell proliferation”.
`Nc1ccc(C(=O)NCC(=O)O)cc1` [PAH, para-amino hippurate]: in test [1], the “uric acid uptake into VSMCs in the presence of another organic anion” value is reported as “inhibited”.
As for `O=c1[nH]c(=O)c2[nH]c(=O)[nH]c2[nH]1` [uric acid], the “competition between 14C-urate and cold urate for uptake by rat VSMCs” value in test [1] (0.1, 1, 5, 10 or 50 mg/dL cold urate) is reported as “more effectively competed”. The “urate uptake level, depolarized versus polarized conditions” value in test [4] (up to 120 minutes) is reported as “larger under depolarized conditions than under polarized conditions”. In addition, the “time until urate uptake reaches steady state” value in test [4] (depolarized conditions (100 mM KCl uptake solution)) was at most 15 min; in test [4] (polarized conditions (HEPES-physiological saline solution)) it was at most 30 min. The “3H-thymidine uptake level by rat VSMCs” value in test [2] (3 mg/dL uric acid) is reported as “increased”.
